From the supplement of paper PMC11451515

Key:
Settings in all cases: 48 h
[1] = system: P12-Ichikawa; experiment: AUC of viability dose-response curve (% viability x log10 dose units); higher = less sensitive
Outline: (§1)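 Library compounds in DMSO were applied for 48 h at 37°C at 11 threefold doses (47 μM to 0.79 nM) to medium-adapted leukemia cells in 1536-well plates holding 500 or 1000 cells/well. Luminescence from CellTiter-Glo One was normalised plate by plate against DMSO and cell-free wells. Area under the curve came from trapezoidal integration of a log-logistic fit, after scaling curves that rose above full viability and discarding those that failed quality control. The fit had four parameters and used log10 doses.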

[2] = system: SEM cells; experiment: as above
Outline: as §1

[3] = system: NOMO1; experiment: as above
Outline: as §1

[4] = system: P12-Ichikawa; experiment: cell viability relative to DMSO control; higher = less cytotoxic
Outline: (§2)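 Library compounds in DMSO were pin-dosed into 1536-well plates (5 μl) holding NOMO1 or SEM (500 cells/well) or P12-Ichikawa (1000 cells/well) leukemia cells, across an 11-point threefold series of 47 μM to 0.79 nM. Each cell line had been adapted for at least four passages in each medium. CellTiter-Glo One luminescence was read after 48 h at 37°C. Viability is the per-plate percentage relative to DMSO wells, with cell-free wells as background.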

[5] = system: SEM cells; experiment: as above
Outline: as §2

[6] = system: NOMO1; experiment: as above
Outline: as §2

C[C@]12COC(=O)C[C@@H]1CC[C@@H]1[C@@H]2CC[C@@]2(C)[C@H]1CC[C@]2(C)O
AUC of viability dose-response curve
Settings	[1]	[2]	[3]
HPLM + 10% dialyzed FBS	457	451	472
RPMI 5 mM glucose + 10% FBS	463	457	443
RPMI 5 mM glucose + 10% dialyzed FBS	471	447	443

cell viability [%]
Settings	[4]	[5]	[6]
HPLM + 10% dialyzed FBS, 0.000781 µM	105	96.4	98
HPLM + 10% dialyzed FBS, 0.00234 µM	107	97.7	109
HPLM + 10% dialyzed FBS, 0.00702 µM	117	95.7	103
HPLM + 10% dialyzed FBS, 0.0211 µM	107	105	91.1
HPLM + 10% dialyzed FBS, 0.0632 µM	110	94	118
HPLM + 10% dialyzed FBS, 0.19 µM	102	93.3	98
HPLM + 10% dialyzed FBS, 0.569 µM	107	85.5	98.6
HPLM + 10% dialyzed FBS, 1.71 µM	103	96.6	103
HPLM + 10% dialyzed FBS, 5.12 µM	102	101	104
HPLM + 10% dialyzed FBS, 15.4 µM	100	86.3	97.1
HPLM + 10% dialyzed FBS, 46.1 µM	88.1	88.4	80
RPMI 5 mM glucose + 10% FBS, 0.000781 µM	106	105	90.7
RPMI 5 mM glucose + 10% FBS, 0.00234 µM	109	110	87.1
RPMI 5 mM glucose + 10% FBS, 0.00702 µM	101	104	86.4
RPMI 5 mM glucose + 10% FBS, 0.0211 µM	100	100	97.3
RPMI 5 mM glucose + 10% FBS, 0.0632 µM	107	106	101
RPMI 5 mM glucose + 10% FBS, 0.19 µM	105	106	103
RPMI 5 mM glucose + 10% FBS, 0.569 µM	113	105	95.1
RPMI 5 mM glucose + 10% FBS, 1.71 µM	98.3	101	101
RPMI 5 mM glucose + 10% FBS, 5.12 µM	101	95.9	90.8
RPMI 5 mM glucose + 10% FBS, 15.4 µM	103	90	81.2
RPMI 5 mM glucose + 10% FBS, 46.1 µM	97.4	78.4	84.1
RPMI 5 mM glucose + 10% dialyzed FBS, 0.000781 µM	101	98.2	97.6
RPMI 5 mM glucose + 10% dialyzed FBS, 0.00234 µM	98.6	109	101
RPMI 5 mM glucose + 10% dialyzed FBS, 0.00702 µM	97.5	104	91.4
RPMI 5 mM glucose + 10% dialyzed FBS, 0.0211 µM	104	111	102
RPMI 5 mM glucose + 10% dialyzed FBS, 0.0632 µM	92.3	121	103
RPMI 5 mM glucose + 10% dialyzed FBS, 0.19 µM	101	109	92.2
RPMI 5 mM glucose + 10% dialyzed FBS, 0.569 µM	99.2	101	78.2
RPMI 5 mM glucose + 10% dialyzed FBS, 1.71 µM	104	92	92
RPMI 5 mM glucose + 10% dialyzed FBS, 5.12 µM	94.1	101	88.3
RPMI 5 mM glucose + 10% dialyzed FBS, 15.4 µM	98.7	89.5	92.4
RPMI 5 mM glucose + 10% dialyzed FBS, 46.1 µM	95.2	78.6	83.1

COC(=O)Nc1cc(Nc2cc(NC3CC3)c3ncc(C#N)n3n2)c(Cl)c(N2CCN(C)CC2)c1
AUC of viability dose-response curve
Settings	[1]	[2]	[3]
HPLM + 10% dialyzed FBS	423	363	384
RPMI 5 mM glucose + 10% FBS	400	346	385
RPMI 5 mM glucose + 10% dialyzed FBS	392	328	368

cell viability [%]
Settings	[4]	[5]	[6]
HPLM + 10% dialyzed FBS, 0.000781 µM	107	97.9	117
HPLM + 10% dialyzed FBS, 0.00234 µM	102	103	114
HPLM + 10% dialyzed FBS, 0.00702 µM	102	98.7	104
HPLM + 10% dialyzed FBS, 0.0211 µM	111	98.5	107
HPLM + 10% dialyzed FBS, 0.0632 µM	106	98	108
HPLM + 10% dialyzed FBS, 0.19 µM	97.4	102	112
HPLM + 10% dialyzed FBS, 0.569 µM	106	86.5	93.7
HPLM + 10% dialyzed FBS, 1.71 µM	103	77.7	86.7
HPLM + 10% dialyzed FBS, 5.12 µM	76.8	37.9	64.5
HPLM + 10% dialyzed FBS, 15.4 µM	65.3	5.22	45.6
HPLM + 10% dialyzed FBS, 46.1 µM	3.92	4.93	4.67
RPMI 5 mM glucose + 10% FBS, 0.000781 µM	104	–	88.7
RPMI 5 mM glucose + 10% FBS, 0.00234 µM	104	–	112
RPMI 5 mM glucose + 10% FBS, 0.00702 µM	102	–	108
RPMI 5 mM glucose + 10% FBS, 0.0211 µM	106	–	110
RPMI 5 mM glucose + 10% FBS, 0.0632 µM	105	–	93.3
RPMI 5 mM glucose + 10% FBS, 0.19 µM	108	–	110
RPMI 5 mM glucose + 10% FBS, 0.569 µM	105	–	84.5
RPMI 5 mM glucose + 10% FBS, 1.71 µM	92.8	–	89.7
RPMI 5 mM glucose + 10% FBS, 5.12 µM	67	–	57.6
RPMI 5 mM glucose + 10% FBS, 15.4 µM	41.5	–	30.1
RPMI 5 mM glucose + 10% FBS, 46.1 µM	4.51	–	4.34
RPMI 5 mM glucose + 10% dialyzed FBS, 0.000781 µM	106	113	104
RPMI 5 mM glucose + 10% dialyzed FBS, 0.00234 µM	108	122	98.2
RPMI 5 mM glucose + 10% dialyzed FBS, 0.00702 µM	111	110	99.4
RPMI 5 mM glucose + 10% dialyzed FBS, 0.0211 µM	108	109	94.3
RPMI 5 mM glucose + 10% dialyzed FBS, 0.0632 µM	109	103	93
RPMI 5 mM glucose + 10% dialyzed FBS, 0.19 µM	102	95	106
RPMI 5 mM glucose + 10% dialyzed FBS, 0.569 µM	104	84.4	85.3
RPMI 5 mM glucose + 10% dialyzed FBS, 1.71 µM	95	61.9	66.9
RPMI 5 mM glucose + 10% dialyzed FBS, 5.12 µM	63.7	29.9	45.1
RPMI 5 mM glucose + 10% dialyzed FBS, 15.4 µM	36.1	5.89	34.5
RPMI 5 mM glucose + 10% dialyzed FBS, 46.1 µM	4.2	5.24	3.22
